We go through two compounds from patent US20120251495A1, “PTERIN BASED THERAPIES FOR INFLAMMATORY CONDITIONS” (priority 2008, published 2012).

The test system of one test is plasma cytokines. Kind of test: Plasma cytokine levels (multiplex and single ELISA kits), 2nd experiment. The format is in vivo, athymic nude mice. To be noted: for IL-5: limit of detection 3.0; for IFN-γ / IL-12 / IL-4: limit of detection 3.2; for IL-1β: limit of detection 4.1; for IL-6: limit of detection 3.9. The method, then:
Cytokine levels in EDTA plasma from the mice in the 2nd experiment were measured at the UCSD Core Laboratory (San Diego, Calif.) using a multiplex assay kit for IL-1β, IL-2, IL-4, IL-5, IL-10, IL-12, IFN-γ, TNF-α and single ELISA kits for IL-6 and TGF-β1 by R&D Systems. […] For both the 1st and 2nd experiments, those measured cytokine values falling below the limits of detection were set to the higher assay limit for the purposes of the subsequent statistical analyses, and recorded as n.d. (not detectable) in Tables 1 through 3.
(An ELISA detects its analyte on a solid surface through an enzyme-linked reagent.)

Test [1] has as its system spontaneous mammary gland tumors. To be noted: C3H/HeN-MTV+ mice; Moheno, 2004; cited from earlier work.
In test [2] the test system is MDA-MB-231 human breast tumor xenographs. Kind of test: Antitumor efficacy in nude mice with MDA-MB-231 xenographs, 2nd experiment. The format is in vivo, athymic nude mice.
Experimental: In the 2nd experiment, twenty-nine athymic nude, also purchased from Harlan Sprague Dawley, Inc. (Indianapolis, Ind.), were each injected subcutaneously with 10×10^6 MDA-MB-231 cancer cells into the right flank. When tumors reached 3-5 mm in size, the mice were divided into five treatment groups of five each and a control group of four mice. […] All the other mice in the 2nd experiment persisted ≧43 days without complications. Experimental groups were treated by oral gavage once daily with the indicated test suspensions or solutions.
The control mice in the 1st experiment were treated with sterile water while the control mice in the 2nd experiment were untreated to evaluate the effect of mouse handling and gavaging upon tumor growth. Daily dosing was for 7 days per week. Animals were restrained but not anesthetized for oral dosing. Tumors were measured twice weekly with calipers and body weights taken twice weekly on the day of tumor measurements. Blood was collected from all animals via cardiac puncture at termination (after 70 to 98 days of treatment) and processed to EDTA plasma for analysis.
The MDA-MB-231 human breast tumor cell lines were supplied by SRI International (Menlo Park, Calif.) and propagated using standard in vitro cell expansion methods. Briefly, cells were grown in L-15 media from Gibco (Cat. No. 11415-064) supplemented with 2 mM L-Glutamine and 10% Fetal Bovine Serum (FBS). The cells were cultured in an incubator with 5% CO2, 37.5° C., and 80% humidity. Cells were harvested with 0.25% (w/v) Trypsin-0.03% (w/v) EDTA solution. Cells were prepared for injection by standard methods to appropriate concentrations. Animals were temporarily restrained but not anesthetized for the inoculation of the tumor cells. Animals were subcutaneously injected with the tumor cells in a 100-200 μl volume.
Each animal was individually tracked for tumor growth by external caliper measurements of protruding tumor. Primary tumor sizes were measured using calipers and an approximate tumor volume calculated using the formula 1/2 (a×b^2), where b was the smaller of two perpendicular diameters.
For each group, the mean and standard error of the mean (SEM) of the ratio V/Vo, Relative Tumor Volume (RTV), were plotted as a function of treatment time after inoculation. V0 was the tumor volume at Day 0, when treatment began.
For test [3], the system named is MDA-MB-231 human breast xenographs. To be noted: Moheno, 2004, cited from earlier work.
The test system of test [4] is serum cytokines/chemokines. Kind of test: Serum cytokine/chemokine array in HBV transgenic mice. It counts as in vivo. The method, then: (§1) Experimental design. DCP was administered per os, once daily for 14 days to randomly assigned HBV transgenic mice at 23, 7.3, and 2.3 mg/(kg d). ADV was used as a positive control at 10 mg/(kg d) using the same treatment schedule and vehicle (0.4% CMC). On day 14, mice were euthanized to collect serum and liver samples to perform liver HBV DNA, liver core and serum HBe assays, serum cytokine/chemokine profiles, and IDO metabolite assays.
Liver or serum cytokine/chemokine array. Liver samples were prepared for the Q-Plex™ mouse cytokine/chemokine array (Quansys Biosciences, Logan, Utah) as described previously (Morrey J D, Molter N E, Taro B, Lay M & Fairman J. Efficacy of cationic lipid-DNA complexes (CLDC) on hepatitis B virus in transgenic mice. Antiviral Res 2008; 79:71-79).

For a further test, the target named is T1, IDO (Homo sapiens, UniProt P14902).
T1 construct: endogenous in cells; host or cells: human PBMCs (peripheral blood mononuclear cells), unstimulated or PHA-stimulated
The test can be described thus: IDO inhibition in vitro with human PBMCs (kynurenine production). It counts as cell-based. The method, then:
The purpose of this in vitro study was to measure the IC50 values of IDO in PBMCs for 1) calcium pterin, CaCl2, and pterin to determine measurable synergistic effects between Ca^+2 and pterin, and 2) to compare these values with those of DCP for the assessment of relative IDO inhibitory strength. IC50 (μM) values for IDO inhibition by (1:4 mol:mol) calcium pterin, DCP, CaCl2, and pterin were determined in vitro with human PBMCs (both PHA-stimulated and unstimulated) by measuring kynurenine production as previously described (Winkler et al., 2006).

A further test concerns hepatitis B virus (HBV). Kind of test: Liver HBV DNA by Southern blot hybridization in HBV transgenic mice. It counts as in vivo.
Source text: Animals. Homozygous adult female and male transgenic HBV mice were used (20.6±2.8 g). The mice were originally obtained from Dr. Frank Chisari (Scripps Research Institute, La Jolla, Calif.) (Guidotti L G, Matzke B, Schaller H & Chisari F V. High-level hepatitis B virus replication in transgenic mice. J Virol 1995; 69:6158-6169) and were subsequently raised in the Biosafety Level 3 (BL-3) area of the AAALAC-accredited USU Laboratory Animal Research Center (LARC). The animals were derived from founder 1.3.32 (Guidotti L G, Matzke B, Schaller H & Chisari F V. High-level hepatitis B virus replication in transgenic mice. J Virol 1995; 69:6158-6169). This study was conducted in accordance with the approval of the Institutional Animal Care and Use Committee of Utah State University.
as §1
Liver HBV DNA assays. Southern blot hybridization and quantitative PCR (qPCR) were performed on liver tissues (Morrey J D, Motter N E, Tam B, Lay M & Fairman J. Efficacy of cationic lipid-DNA complexes (CLDC) on hepatitis B virus in transgenic mice. Antiviral Res 2008; 79:71-79). For Southern blot hybridization, the ratio of the viral DNA bands to the transgene band was used to determine the concentration of viral DNA per host DNA. This calculation was based upon the knowledge that there were 1.3 copies of the transgene present per host cell with this line of transgenic mice. The transgene was used as an internal indicator to calculate the pg of HBV DNA per μg of homozygous cellular host DNA. For qPCR, the assay was run with a series of 10-fold dilutions of pooled liver DNA from HBV transgenic mice to obtain a standard curve. Mean C(t) values were obtained for duplicates of each sample. The mean C(t) values of each sample were used to obtain the log relative DNA values using a formula of the fit line of the standard curve.

T1 sequence (P14902 whole entry): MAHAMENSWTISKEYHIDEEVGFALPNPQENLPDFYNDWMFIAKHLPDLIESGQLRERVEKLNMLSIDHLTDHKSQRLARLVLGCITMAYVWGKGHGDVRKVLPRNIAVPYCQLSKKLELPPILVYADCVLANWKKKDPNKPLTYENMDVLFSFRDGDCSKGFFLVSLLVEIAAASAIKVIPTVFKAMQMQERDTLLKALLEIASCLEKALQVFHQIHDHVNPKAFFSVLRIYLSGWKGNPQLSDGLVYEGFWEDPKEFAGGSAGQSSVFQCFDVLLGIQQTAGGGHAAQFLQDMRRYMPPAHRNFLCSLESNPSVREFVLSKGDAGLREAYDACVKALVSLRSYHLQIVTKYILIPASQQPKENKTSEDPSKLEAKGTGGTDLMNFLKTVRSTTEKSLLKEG

By T/C is commonly meant the ratio of treated to control. For (1:4 mol:mol) calcium pterin [CaPterin], in the test on plasma cytokines (2nd experiment, 21 mg/kg/d), the IL-5 turned out to be 8.2 ± 1.4 pg/mL, the IFN-γ was determined as 6.2 ± 2.4 pg/mL, the IL-12 stood at 721.6 ± 19.1 pg/mL and the IL-1β was 5.0 ± .7 pg/mL. This compound also had an IL-6 in the test on plasma cytokines (2nd experiment, 21 mg/kg/d, plasma at sacrifice) of 30.3 ± 10.2 pg/mL. Moreover, in the test with plasma cytokines (at the dosages tested), the “increases in plasma IL-12 (FIG. 10)” value is “lower, non-significant increases”. For the same compound, the “activity against spontaneous mammary gland tumors” value in test [1] was “highly significant activity”. Also, the T/C in test [2] (21 mg/kg/day, after 43 days) is 37%. Also, in test [3] (7 mg/kg/day), the T/C ratio is reported as 41%. Moreover, the “antitumor efficacy against MDA-MB-231 human breast xenographs” value in test [3] (nude mice) is given as “significant antitumor efficacy”.

In general, IC50 refers to the concentration at which inhibition is half-maximal. Consider `Nc1nc([O-])c2nccnc2n1.Nc1nc([O-])c2nccnc2n1.[Ca+2]` [DCP, dipterinyl calcium pentahydrate], for which, in the test on plasma cytokines (2nd experiment, 23 mg/kg/d), the IL-5 turned out to be 20.3 ± 10.2 pg/mL, the IFN-γ was found to be 15.2 ± 4.9 pg/mL, the IL-4 was 5.7 ± 1.7 pg/mL and the IL-12 is 1141.7 ± 327.1 pg/mL. Also, in the test on plasma cytokines (2nd experiment, 23 mg/kg/d), the IL-6 turned out to be 49.6 ± 18.5 pg/mL and the IL-1β was 6.2 ± .8 pg/mL. Also, the IL-2 in the test with plasma cytokines (2nd experiment, 23 mg/kg/d, limit of detection 12.6) was 12.7 ± .11 pg/mL. The IL-10 with plasma cytokines (2nd experiment, 23 mg/kg/d, limit of detection 24.6) is 37.0 ± 12.4 pg/mL. Besides, in the test on plasma cytokines (2nd experiment, 69 mg/kg/d), the IL-5 is 24.9 ± 17.0 pg/mL, the IFN-γ came out at 29.9 ± 18.0 pg/mL, the IL-4 is 4.0 ± .6 pg/mL and the IL-12 turned out to be 1050.52 ± 238.7 pg/mL. For the same compound, in the test on plasma cytokines (2nd experiment, 69 mg/kg/d), the IL-6 worked out at 37.0 ± 11.3 pg/mL and the IL-1β was 5.3 ± .7 pg/mL. The same compound came in with a TGF-β1 with plasma cytokines (2nd experiment, 69 mg/kg/d, limit of detection 31.2) of 49.5 ± 18.3 pg/mL. In addition, in test [4] (male HBV mice, 2.3 mg/(kg day)), the “serum chemokine RANTES versus controls” value is listed as “significant decrease”. In test [4] (serum, female, 7.3 mg/(kg d)), the “IL-4, Female levels (mean ± SEM)” value is 241 ± 53 rel. pg/ml; the “IL-9, Female levels (mean ± SEM)” value was 185 ± 28 rel. pg/ml; the “IL-12, Female levels (mean ± SEM)” value turned out to be 642 ± 11 rel. pg/ml. Moreover, in test [4] (serum, male, 7.3 mg/(kg d)), the “IL-4, Male levels (mean ± SEM)” value amounted to 87 ± 28 rel. pg/ml; the “IL-9, Male levels (mean ± SEM)” value was 112 ± 13 rel. pg/ml; the “IL-12, Male levels (mean ± SEM)” value is 575 ± 17 rel. pg/ml. Further, the IC50 at IDO (PHA stimulated per Table 3) came to 320 µM. Besides, the IC50 on IDO (unstimulated per Table 3) was found to be 470 µM. Further, the “MDA-MB-231 xenograph growth inhibition” value in test [2] ((1:2) 25, DCP 23 and 69, calcium chloride dihydrate 4.2 mg/kg/day) is listed as “significantly inhibit”. Besides, in the test on hepatitis B virus (HBV) (2.3 mg/(kg d)), the “Liver HBV DNA (Southern), Female levels (mean ± SEM)” value stood at 12.7 ± 1.9 pg/µg and the “Liver HBV DNA (Southern), Male levels (mean ± SEM)” value came to 46.4 ± 10.8 pg/µg. In the test on hepatitis B virus (HBV) (7.3 mg/(kg d)), the “Liver HBV DNA (Southern), Female levels (mean ± SEM)” value was 17.3 ± 3.5 pg/µg and the “Liver HBV DNA (Southern), Male levels (mean ± SEM)” value is 50.4 ± 10.3 pg/µg. In the test with hepatitis B virus (HBV) (23.0 mg/(kg d)), the “Liver HBV DNA (Southern), Female levels (mean ± SEM)” value is 10.6 ± 1.6 pg/µg and the “Liver HBV DNA (Southern), Male levels (mean ± SEM)” value is 36.0 ± 10.6 pg/µg.
